For assay [1], the system named is Aβ formation in H4 cells stably transfected to overexpress the HPLAP-APP fusion protein. Briefly: Inhibition of β-amyloid peptide formation in human H4 cells. In kind it is cell-based. The note with it: H4 cells overexpressing HPLAP-APP, 18 hrs at 37° C. How it is done: γ-Secretase inhibitors can also be evaluated using in vitro assays based on the inhibition of Aβ formation in cultured cells. Cultured human cell lines, such as HEK293 and H4 cells, which express APP and γ-secretase activity or transfected derivative cell lines that overexpress wild-type APP, mutant APP, or APP fusion proteins will secrete Aβ peptides into the culture media that can be quantified as previously outlined (Dovey, H., John, V. et al., J. Neurochem. 2001, 76, 173–181). The incubation of these cultured cells with γ-secretase inhibitors decreases the production of Aβ peptides. For instance, H4 cells stably transfected to overexpress the HPLAP-APP fusion protein described above were grown as above, detached, and adjusted to 2×10^5 cells/ml. 100 μl of the resulting suspension was then added to each well of a 96-well plate. After 4 hrs, the media was removed and replaced with 100 μl serum-free media containing various dilutions of the test compound. Plates were then incubated for 18 hrs at 37° C. and a 100 μl aliquot of the tissue culture supernatant was removed for determination of Aβ levels using time-resolved fluorescence of the homogenous sample as outlined above. Alternately, the other methods described above for Aβ determination could be used. The extent of Aβ inhibition was used to calculate the IC50 value for the test compound.
In Table 2, an inhibitory concentration (IC50) of less than or equal to 50 nM is represented by +++; between 50 nM and 500 nM by ++; between 500 nM and 50000 nM by +.

For another assay, the system named is γ-secretase. Nature of the assay: Competitive in vitro binding assay with [3H]-Compound A and membranes from THP-1 cells. The note with it: displacement of [3H]-Compound A, THP-1 cell membranes, 23° C., 1.3 hr; read-out: Binding affinity (IC50 in nM). The text has this:
Competitive in vitro binding assays can be used to identify compounds that inhibit γ-secretase activity. For example, [^3H]-Compound A can be used for binding assays with membranes from THP-1 cells (Seiffert, D.; Bradley, J. et al., J. Biol. Chem. 2000, 275, 34086–34091). Compound A is (2R,3S) N1-[(3S)-hexahydro-1-(3-phenoxybenzyl)-2-oxo-1H-azepin-3-yl]-2-(2methylpropyl)-3-(propyl)-butanediamide, which is described in U.S. patent U.S. Pat. No. 6,331,408 (Dec. 18, 2001); PCT Publication WO 00/28331; PCT Publication WO 00/07995; and Seiffert, D., Bradley, J. et al., J. Biol. Chem. 2000, 275. 34086–34091.
To evaluate the compounds of this invention using this assay, THP-1 cells were grown in spinner cultures in RPMI 1640 containing L-glutamine and 10 μM β-mercaptoethanol to a density of 5×10^5 cells/ml. Cells were harvested by centrifugation and cell pellets were quick frozen in dry ice/ethanol and stored at −70° C. prior to use. The pellets of approximately 2×10^4 THP-1 cells were homogenized using a Brinkman Polytron at setting 6 for 10 sec. The homogenate was centrifuged at 48,000×g for 12 min, and the resulting pellet was washed by repeating the homogenization and centrifugation. The final cell pellet was resuspended in buffer to yield a protein concentration of approximately 0.5 mg/ml. Assays were initiated by the addition of 150 μl of membrane suspension to 150 μl of assay buffer containing 0.064 μCi of radioligand and various concentrations of unlabeled compounds. Binding assays were performed in duplicate in polypropylene 96-well plates in a final volume of 0.3 ml containing 50 mM Hepes, pH 7.0, and 5% dimethyl sulfoxide. Nonspecific binding was defined using incubations with 300 nM compound A (Seiffert, D., Bradley, J. et al., J. Biol. Chem. 2000, 275, 34086–34091). After incubating at 23° C. for 1.3 hr, bound ligand was separated from free radioligand by filtration over GFF glass fiber filters presoaked in 0.3% ethyleneimine polymer solution. Filters were washed three times with 0.3 ml of ice cold phosphate-buffered saline, pH 7.0, containing 0.1% Triton X-100. Filter-bound radioactivity was measured by scintillation counting. IC50 values were then determined and used to calculate Ki values using the Cheng-Prusoft correction for IC50 values.
The compounds of this invention were evaluated in the assay described above, as well as with other evaluation methods, and found to be inhibitors of γ-secretase. In the table, an inhibitory concentration (IC50) of less than or equal to 50 nM is represented by +++; between 50 nM and 500 nM by ++; between 500 nM and 10000 nM by +.

Compound `NC(=O)[C@@H]1CCCC[C@@H]1N(Cc1ccc(C(F)(F)F)cc1)S(=O)(=O)c1ccc(Cl)cc1` (relative stereo) [Example 10, cis-2-[(4-Chlorobenzenesulfonyl)-(4-trifluoromethyl-benzyl)-amino]-cyclohexanecarboxylic acid amide] yielded an IC50 in assay [1] (Homo sapiens) of 50 to 500 nM.

For “(1S,2R)-2-[(4- Chlorobenzenesulfonyl)-[4-( -hydroxy-1-methyl-ethyl)-benzyl]-amino]-cyclohexanecarboxylic acid amide [Example 6]”, in assay [1], the IC50 was at most 50 nM.

Take `COC(=O)c1ccc(CN([C@@H]2CCCCC[C@@H]2C(N)=O)S(=O)(=O)c2ccc(Cl)cc2)cc1` (relative stereo) [Example 20, cis-4-[[(2-Carbamoyl-cycloheptyl)-(4-chlorobenzenesulfonyl)-amino]-methyl]-benzoic acid methyl ester]: the half-inhibitory concentration (IC50) in the assay with γ-secretase lay in the range of 50 to 500 nM.

Compound `NC(=O)[C@H]1CCCC[C@H]1N(Cc1ccc(Cl)s1)S(=O)(=O)c1ccc(Cl)cc1` [Example 7, (1S,2R)-2-[(4-Chlorobenzenesulfonyl)-(5-chloro-thiophen-2-ylmethyl)-amino]-cyclohexanecarboxylic acid amide] had an IC50 in assay [1] (Homo sapiens) of at most 50 nM.

`CCNC(=O)c1ccc(CN([C@@H]2CCCC[C@H]2C(N)=O)S(=O)(=O)c2ccc(Cl)cc2)cc1` [Example 30, 4-[[(1R,2R)-(2-Carbamoyl-cyclohexyl)-(4-chlorobenzenesulfonyl)-amino]-methyl]-N-ethyl benzamide]: the IC50 with γ-secretase lay in the range of 50 to 500 nM.

In the case of `CCNC(=O)c1ccc(CN([C@@H]2CCC[C@H]2C(N)=O)S(=O)(=O)c2ccc(Cl)cc2)cc1` [Example 32, 4-[[(1R,2R)-(2-Carbamoyl-cyclopentyl)-(4-chlorobenzenesulfonyl)-amino]-methyl]-N-ethyl-benzamide], the IC50 with γ-secretase fell in the range of 500 to 10000 nM.

Consider `NC(=O)[C@H]1CCCC[C@H]1N(Cc1ccc(OC(F)(F)F)c(Cl)c1)S(=O)(=O)c1ccc(Cl)cc1` [Example 4, (1S,2R)-2-[(4-Chlorobenzenesulfonyl)-(3-chloro-4-trifluoromethoxy-benzyl)-amino]-cyclohexanecarboxylic acid amide], for which the IC50 in assay [1] (Homo sapiens) fell in the range of 50 to 500 nM.

In assay [1] (Homo sapiens), `CC(C)(C)c1ccc(CN([C@@H]2CCCC[C@@H]2C(N)=O)S(=O)(=O)c2ccc(Cl)cc2)cc1` [Example 3, (1S,2R)-2-[(4-tert-Butyl-benzyl)-(4-chlorobenzenesulfonyl)-amino]-cyclohexanecarboxylic acid amide] yielded an IC50 of 50 to 500 nM.

With `NC(=O)[C@H]1CCCC[C@H]1N(Cc1ccc(SC(F)(F)F)cc1)S(=O)(=O)c1ccc(Cl)cc1` [Example 8, (1S,2R)-2-[(4-Chlorobenzenesulfonyl)-(4-trifluoromethylsulfanyl-benzyl)-amino]-cyclohexanecarboxylic acid amide], the IC50 in assay [1] (Homo sapiens) is at most 50 nM.

As to `COC(=O)c1ccc(CN([C@@H]2CCCC[C@@H]2C(N)=O)S(=O)(=O)c2ccc(Cl)cc2)cc1` (relative stereo) [Example 13, cis-4-[[(2-Carbamoyl-cyclohexyl)-(4-chlorobenzenesulfonyl)-amino]-methyl]-benzoic acid methyl ester], in assay [1] (Homo sapiens), the IC50 is at most 50 nM.

In turn, `NC(=O)[C@H]1CCCC[C@H]1N(Cc1ccc(F)c(Cl)c1)S(=O)(=O)c1ccc(Cl)cc1` [Example 5, (1S,2R)-2-[(4-Chlorobenzenesulfonyl)-(3-chloro-4fluoro-benzyl)-amino]-cyclohexanecarboxylic acid amide] registered an IC50 in assay [1] (Homo sapiens) of 50 to 500 nM.

`CCNC(=O)c1ccc(CN([C@H]2CCCCC[C@H]2C(N)=O)S(=O)(=O)c2ccc(Cl)cc2)cc1` (relative stereo) [Example 24, cis-2-[(4-Chlorobenzenesulfonyl)-(4-ethylcarbamoyl-benzyl)-amino]-cycloheptanecarboxylic acid amide] came in with an IC50 in assay [1] (Homo sapiens) of at most 50 nM.

Take `CCNC(=O)c1ccc(CN([C@@H]2CCC[C@@H]2C(N)=O)S(=O)(=O)c2ccc(Cl)cc2)cc1` [Example 31, 4-[[(1R,2S)-(2-Carbamoyl-cyclopentyl)-(4-chlorobenzenesulfonyl)-amino]-methyl]-N-ethyl-benzamide]: the IC50 in the assay with γ-secretase is 50 to 500 nM.

Regarding `CCNC(=O)c1ccc(CN([C@@H]2CCCC[C@@H]2C(N)=O)S(=O)(=O)c2ccc(Cl)cc2)cc1` [Example 2, 4-[[(1R,2S)-(2-Carbamoyl-cyclohexyl)-(4-chlorobenzenesulfonyl)-amino]-methyl]-N-ethyl-benzamide], the IC50 (in the assay on γ-secretase; in assay [1] (Homo sapiens)) was at most 50 nM in each case.

Regarding `COC(=O)c1ccc(CN([C@@H]2CCCC[C@@H]2C(N)=O)S(=O)(=O)c2ccc(Cl)cc2)cc1` [Example 1, 4-[[(1R,2S)-(2-Carbamoyl-cyclohexyl)-(4-chlorobenzenesulfonyl)-amino]-methyl]-benzoic acid methyl ester], the IC50 (with γ-secretase; in assay [1] (Homo sapiens)) was at most 50 nM each time.

For `NC(=O)[C@@H]1CCCCC[C@@H]1N(Cc1ccc(-n2cccn2)cc1)S(=O)(=O)c1ccc(Cl)cc1` (relative stereo) [Example 23, cis-2-[(4-Chlorobenzenesulfonyl)-(4-pyrazol-1-yl-benzyl)-amino]-cycloheptanecarboxylic acid amide], in the assay with γ-secretase, the IC50 lay in the range of 500 to 10000 nM.

Compound `N#Cc1ccc(CN([C@H]2CCCCC[C@H]2C(N)=O)S(=O)(=O)c2ccc(Cl)cc2)cc1` (relative stereo) [Example 21, cis-2-[(4-Chlorobenzenesulfonyl)-(4-cyano-benzyl)-amino]-cycloheptanecarboxylic acid amide] returned an IC50 in assay [1] (Homo sapiens) of 500 to 50000 nM.

`CCNC(=O)c1ccc(CN([C@H]2CCCC[C@@H]2C(N)=O)S(=O)(=O)c2ccc(Cl)cc2)cc1` [Example 29, 4-[[(1S,2S)-(2-Carbamoyl-cyclohexyl)-(4-chlorobenzenesulfonyl)-amino]-methyl]-N-ethyl benzamide]: in the assay on γ-secretase, the IC50 was 50 to 500 nM.

As to `CCNC(=O)c1ccc(CN([C@@H]2CCCC[C@@H]2C(N)=O)S(=O)(=O)c2ccc(Cl)cc2)cc1` [Example 28, 4-[[(1R,2S)-(2-Carbamoyl-cyclohexyl)-(4-chlorobenzenesulfonyl)-amino]-methyl]-N-ethyl benzamide], in the assay with γ-secretase, the IC50 was in the range of 500 to 10000 nM.
